Measured values published in US20140378380A1, “USE OF UNACYLATED GHRELIN, FRAGMENTS AND ANALOGS THEREOF AS ANTIOXIDANT” (Alizé Pharma SAS, priority 2013, published 2014).

What was measured:
satellite cells (SCs) = assay: SCs recovered from ischemic muscles of treated mice (count, Western blot, DCF-DA, qRT-PCR); assay type: in vivo
Description: (§1) Male C57BL/6J mice (Charles River Lab., Wilmington, Mass., USA) were anesthetized and unilateral hind limb ischemia was induced as described^42. The normo-perfused contralateral limb of each mouse was used as an internal control. After hind-limb ischemia, animals (18 mice per group) were treated by intra-peritoneal injection daily from 0 to day 21 with either saline, AG ([…]) or UAG ([…]). In selected experiments, mice received intramuscular injections of pre-miR oligonucleotides (5 mice/group). To induce toxic damage, 100 μl of 1% barium chloride (BaCl2, Sigma Aldrich) was injected unilaterally into the hind limb (9 mice). Mice were treated according to European Guidelines and policies as approved by the University of Turin Ethical Committee.
(§2) SCs were isolated from gastrocnemius muscles of C57BL/6J wild type mice subjected to ischemia or C57BL/6J mice lacking the GHSR1a and ghrelin genes (10 mice, kind gift of Professor M. Tschöp)^39. To obtain SCs, muscle samples were subjected to enzymatic digestion as described^45. In selected experiments, SCs were recovered from normo-perfused muscles and subjected to in-vitro ischemia in presence of saline, AG (1 μmol/L) or UAG (1 μmol/L). In-vitro ischemia was induced by incubating cells in DMEM+2% FCS at 5% CO2/95% N2 humidified atmosphere, yielding 1% O2 concentrations for 24 h^18. The in-vitro ischemia was also performed in the presence of SB202190 (1 μmol/L).
(§3) Cells were lysed and protein detection was obtained as previously described^47. Cells were lysed (50 mmol/L Tris HCl [pH 8.3], 1% Triton X-100, 10 mmol/L PMSF, 100 U/ml aprotinin, 10 μmol/L leupeptin) and protein concentrations were obtained as previously described^47. […] Densitometric analysis was used to calculate the differences in the fold induction of protein levels and normalized to tubulin, a actin or p38MAPK content. Values are reported as relative amount
(§4) Intracellular ROS production was evaluated using DCF-DA (5-(and-6)-carboxy-2′,7′-dichlorofluorescein diacetate, […] final concentration) (Molecular Probe, Invitrogen) assay as previously described^23. The formation of TBARS was determined in muscles using the OXI-TEK kit (ZeptoMetrix Corp.) and a luminescence spectrometer (Bio-Rad Laboratories, Hercules, Calif.) with excitation set at 530 nm, emission at 550 nm to measure in-vivo oxidative stress levels^33.
(§5) Total RNA was isolated using TRIzol reagent (Invitrogen) from SCs recovered from muscles of treated animals or from SCs subjected to in-vitro ischemia. miR-221/222 expression was evaluated by qRT-PCR as previously described^48. Loss-of-function experiments were performed in SCs transfected for 48 h with anti-miRNA negative control, anti-miR-221/222 antagonists (Applied Biosystem, Foxter Cyto CA, USA), according to the manufacturer's instructions^48.

primary SCs = assay: Primary SCs from normo-perfused muscles subjected to in vitro ischemia; assay type: cell-based, mice
Description: as §2
(§6) SC cell-cycle progression was evaluated by evaluating the percentage of PCNA-positive cells or by FACS analysis as previously described^46. The percentage of cells in each cell cycle phase was determined by ModFit LT software (Verity Software House. Inc, topsham, ME, USA). Celss proliferation was also assayed by evaluating the percentage of PCNA-positive cells by FACS analysis.
as §3, §4, §5
To obtain SOD-2 inactivation, SCs were transiently transfected with siRNA for SOD-2 or with duplex siRNAs (Qiagen, Valencia, Calif., USA) as previously described^44. Transfection was performed according to the manufacturer's instructions. Whole cell extracts were processed 48 h after transfection. Cell viability was evaluated at the end of each experiment. […]

C57BL/6J mice [1] = assay: Toxic damage induced by 1% barium chloride (BaCl2) in gastrocnemius muscle; assay type: in vivo; details: 1% BaCl2 injected into hind limb
Description: as §1
(§7) Gastrocnemius muscle sections from ischemic or normo-perfused limbs were stained with hematoxylin and eosin for histological analysis. The proportion of fibers with central nuclei (regenerating fibers) was measured by MetaMorph software (Life Sciences Research Imaging Systems) in the injured area and the cross-sectional areas of the fibers in the injured and non-injured areas. For IF analysis, muscle sections were processed as described previously^44. The number of cells expressing the indicated markers or CD31 positive vessels was evaluated as previously described^34.

GHSR-1a = GHSR-1a (Homo sapiens, UniProt Q92847); details: cited from earlier work
GHSR-1a, sequence (Q92847 whole entry): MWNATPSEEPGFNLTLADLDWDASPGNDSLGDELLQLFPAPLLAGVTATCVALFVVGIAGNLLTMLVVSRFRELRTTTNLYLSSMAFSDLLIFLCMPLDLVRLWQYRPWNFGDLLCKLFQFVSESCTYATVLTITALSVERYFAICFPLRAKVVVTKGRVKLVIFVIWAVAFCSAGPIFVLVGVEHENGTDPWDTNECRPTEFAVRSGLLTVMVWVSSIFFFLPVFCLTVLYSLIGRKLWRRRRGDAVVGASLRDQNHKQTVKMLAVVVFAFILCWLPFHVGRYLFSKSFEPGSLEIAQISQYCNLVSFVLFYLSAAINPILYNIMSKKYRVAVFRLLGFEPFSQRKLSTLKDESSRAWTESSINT

GH secretion = details: cited from earlier work
[2] = test system: C2C12 mouse muscular cell line; assay: ROS production (DCF-DA) in C2C12 cells subjected to oxidative stress; assay type: cell-based; details: oxidative stress by hypoxia, AGEs, hyperglycemia or H2O2; 1 μmol/L
Description: Kinetic analysis of ROS production was evaluated by using DCF-DA (5-(and-6)-carboxy-2′,7′-dichlorofluorescein diacetate, 0.5 μmol/L final concentration) (Molecular Probe, Invitrogen) assay. C2C12 cells were cultured with 400 μg/ml Advanced Glycated End-product (AGE) or 25 mM glucose (high glucose HG) for 48 h, H2O2 (100 μM) for 2 h. In parallel experiments C2C12 cells were subjected to hypoxia (DMEM+2% FCS in a 5% CO2-95% N2 humidified atmosphere, yielding to 1% O2 concentrations for 24 h). UAG (1 μmol/L) AZP 531 (1 μmol/L) or AZP-502 (1 μmol/L) was added where indicated.

SCs from double KO mice = SCs from double KO mice (lacking GHSR1a and ghrelin genes) subjected to in vitro ischemia; assay type: cell-based
Description: as §2, §6, §3, §4

healthy volunteers = details: administered concomitantly in healthy volunteers; cited from earlier work
C57BL/6J mice [3] = assay: Murine hind-limb ischemia model (foot damage score, histology, IF, TBARS); assay type: in vivo
Description: as §1
Semiquantitative estimation (by repeated measures analyzed with ANOVA and Newman-Keuls Multiple Comparison test) of foot damage was performed serially using the following classification: 3=dragging of foot (foot necrosis), 2=no dragging but no plantar flexion (foot damage), 1=plantar flexion but no toe flexion (toe damage), and 0=flexing the toes to resist gentle traction on the tail (no damage)^43.
as §7, §4

[4] = test system: endothelial progenitor cells (EPCs); details: cited from earlier work
[5] = SOD-2 silenced using siRNA, in vitro ischemia
[6] = in vitro ischemia 1% O2 24 h, 1 μmol/L

Substance: Gly-Ser-Ser-Phe-Leu-Ser-Pro-Glu-His-Gln-Arg-Val-Gln-Gln-Arg-Lys-Glu-Ser-Lys-Lys-Pro-Pro-Ala-Lys-Leu-Gln-Pro-Arg (GSSFLSPEHQRVQQRKESKKPPAKLQPR; listed as Homo sapiens) [UAG]
- ROS production in SCs from treated mice (satellite cells (SCs); DCF-DA assay): lower
- levels of phospho(p)-p38/MAPK protein in SCs (satellite cells (SCs); SCs from treated mice, Western blot): found to be higher
- SOD-2 protein expression in SCs from treated mice (satellite cells (SCs); Western blot): higher
- levels of p57kip2 protein in SCs from treated mice (satellite cells (SCs); Western blot): reduced
- number of Pax-7/MyoD/Myf5+ SCs isolated and counted ex vivo (satellite cells (SCs); ischemic muscles of treated mice): significantly increased number
- expression of miR-221 and miR-222 in SCs recovered from muscles of treated mice (satellite cells (SCs); qRT-PCR, compared to controls): significantly increased
- cell-cycle entry or expression of SOD-2, Pax-7, MyoD, or myogenin (primary SCs; SCs transfected with anti-miR-221/222 antago-miRs (data not shown)): no longer had any effect
- p-p38/MAPK levels (primary SCs; SCs transfected with anti-miR-221/222 antago-miRs, UAG (data not shown)): p-p38/MAPK levels were reduced
- UAG-induced miR-221/222 expression (primary SCs; SOD-2 knock-down, in vitro ischemia): prevents UAG-induced miR-221/222 expression
- cell-cycle progression (primary SCs; [5]): did not undergo cell-cycle progression
- p38/MAPK phosphorylation (primary SCs; [5]): did not induce p38/MAPK phosphorylation
- protection of SCs against ROS generation (primary SCs; [5]): did not protect SCs against ROS generation
- expression of Pax-7, MyoD (primary SCs; [6]): induced expression
- expression of myogenin (primary SCs; [6]): induced expression
- levels of pp38/MAPK (primary SCs; [6]): increased levels
- ROS production (primary SCs; in vitro ischemia, DCF-DA): ROS production was decreased
- PCNA expression (primary SCs; in vitro ischemia, FACS): increased PCNA expression
- number of cells in S phase (primary SCs; in vitro ischemia, FACS): increased
- SOD-2 expression (primary SCs; in vitro ischemia, Western blot): SOD-2 expression increased
- regeneration of skeletal muscle after BaCl2 (ROS-independent damage) (C57BL/6J mice [1]): regeneration of skeletal muscle was no longer observed
- binding to GHSR-1a (GHSR-1a): fails to bind
- effect on GH secretion (GH secretion): no physiological effect on GH secretion
- protective effect on C2C12 cells against oxidative stress [2]: have a protective effect
- SC cell-cycle progression (SCs from double KO mice): only UAG promoted SC cell-cycle progression
- SOD-2 expression (SCs from double KO mice): induced SOD-2 expression
- p-p38/MAPK, Pax-7, MyoD, Myf5 and myogenin expression (SCs from double KO mice): induced
- protection of SCs from ROS generation (SCs from double KO mice; DCF-DA): protected SCs from ROS generation
- hyperglycemic effects of ghrelin (healthy volunteers): prevent the hyperglycemic effects of ghrelin
- number of Pax-7/MyoD+ cells in ischemic muscles (C57BL/6J mice [3]; day 7): increased number of Pax-7/MyoD+ cells
- Pax-7/MyoD+ cells in ischemic muscles (C57BL/6J mice [3]; day 21): scattered Pax-7/MyoD+ cells were still present
- number of SOD-2/Pax-7+ cells in ischemic muscle (C57BL/6J mice [3]; double immunostaining, day 7): increased number of SOD-2/Pax-7+ cells
- number of CD68-positive inflammatory cells (C57BL/6J mice [3]; ischemic muscle): reduced number of CD68-positive inflammatory cells
- number of regenerating myofibers in gastrocnemius muscles (C57BL/6J mice [3]; ischemic muscle): increased number of regenerating myofibers
- number of myogenin-positive cells in ischemic muscles (C57BL/6J mice [3]; ischemic muscles): increased number of myogenin-positive cells
- number of functional vessels in ischemic muscles (C57BL/6J mice [3]; ischemic muscles, compared to the other groups): larger number of functional vessels
- capillary density, ischemic vs contralateral control muscle of the same animals (C57BL/6J mice [3]; ischemic vs normo-perfused muscle): no such differences were observed
- protection against ischemia-induced damage (in vivo effects) (C57BL/6J mice [3]; overall conclusion): appears to protect against ischemia-induced damage
- foot damage (functional score) (C57BL/6J mice [3]; unilateral hind-limb ischemia, i.p. daily from day 0 to day 21, vs saline): damage was significantly higher in saline- and AG-treated groups than in the UAG-treated group
- protection of EPCs from oxidative stress (ROS generation) [4]: only UAG protects endothelial progenitor cells (EPCs) from oxidative stress
